Results: patent US9951046B2, “TRPA1 modulators” (Algomedix, Inc., priority 2014, dated 2018)
pIC50: −log10 of the molar value.

The compounds below were run against T1, human TRPA1 (Homo sapiens, UniProt O75762) (assay: Cell-based functional intracellular calcium ([Ca2+]i) assay, Fluo-4/Fluo-8, FlexStation, challenge with reference TRPA1 agonist (FFA, AITC or 4-HNE)). Conditions: not given.
T1 construct: expressed in transfected cells
Procedure: A stable HEK293 cell line that expresses human TRPA1 in an inducible manner was employed in this assay. […] The expression of TRPA1 was induced by including 1 μg/ml doxycycline in the culture medium. For the induced cells, ruthenium red (5 μM) was also added to minimize the constitutive TRPA1 channel activity and cells were used 14-18 hrs after induction. To measure [Ca^2+]i changes, cells were seeded in wells of 96-well plates at ˜100,000 cells/well and grown for 14-18 hrs to reach confluency. To prevent cell loss from subsequent washing, the wells were treated with 20 μg/ml polyornithine (MW>30,000, Sigma, St Louis, Mo.) for >15 min and rinsed once with Hank's balanced salt solution without Mg^2+ and Ca^2+. […] In some experiments, Fluo-8-AM was used instead of Fluo-4-AM as the calcium-sensitive fluorescent probe. Probenecid (2 mM) was included in all solutions to prevent the leakage of Fluo-4 or Fluo-8 from the cells. At the end of the incubation, cells were washed three times with ECS and placed in 80 μL of the same solution. Fluorescence changes were measured using a fluid handling integrated fluorescence plate reader, FlexStation (Molecular Devices, Sunnyvale, Calif.). Stock solutions of test compounds were initially solubilized in 100% DMSO and then serially diluted to achieve the desired final concentration. […] Drugs were diluted into ECS at 2× or 3× the desired final concentrations and delivered to the sample plate by an integrated robotic 8-channel pipettor at preprogrammed time points. […] Experiments were performed at 20-25° C. For certain experiments, 0.1% BSA was included with the cells and test compounds.
The kinetic data obtained at each test concentration of drug represents a series of fluorescent intensities as a function of time.
Using a sequential addition protocol, test compounds were initially applied to the cells loaded with Fluo-4 or Fluo-8 and fluorescence changes in each well monitored for 2.5 min. The plate was read again in a kinetic mode after a 15-30 min incubation with the test compounds after obtaining baseline values (about 30 s) and subsequent addition of challenge with a reference TRPA1 agonist. Reference TRPA1 agonists in testing each compound included at least one of flufenamic acid (FFA), allyl isothiocyanate (AITC) and 4-hydroxynonenal (4-HNE).
Antagonist activity can be expressed in terms of IC50 with respect to TRPA1 and agonist activity can be expressed in terms of EC50 with respect to TRPA1.

T1 sequence (O75762 whole entry): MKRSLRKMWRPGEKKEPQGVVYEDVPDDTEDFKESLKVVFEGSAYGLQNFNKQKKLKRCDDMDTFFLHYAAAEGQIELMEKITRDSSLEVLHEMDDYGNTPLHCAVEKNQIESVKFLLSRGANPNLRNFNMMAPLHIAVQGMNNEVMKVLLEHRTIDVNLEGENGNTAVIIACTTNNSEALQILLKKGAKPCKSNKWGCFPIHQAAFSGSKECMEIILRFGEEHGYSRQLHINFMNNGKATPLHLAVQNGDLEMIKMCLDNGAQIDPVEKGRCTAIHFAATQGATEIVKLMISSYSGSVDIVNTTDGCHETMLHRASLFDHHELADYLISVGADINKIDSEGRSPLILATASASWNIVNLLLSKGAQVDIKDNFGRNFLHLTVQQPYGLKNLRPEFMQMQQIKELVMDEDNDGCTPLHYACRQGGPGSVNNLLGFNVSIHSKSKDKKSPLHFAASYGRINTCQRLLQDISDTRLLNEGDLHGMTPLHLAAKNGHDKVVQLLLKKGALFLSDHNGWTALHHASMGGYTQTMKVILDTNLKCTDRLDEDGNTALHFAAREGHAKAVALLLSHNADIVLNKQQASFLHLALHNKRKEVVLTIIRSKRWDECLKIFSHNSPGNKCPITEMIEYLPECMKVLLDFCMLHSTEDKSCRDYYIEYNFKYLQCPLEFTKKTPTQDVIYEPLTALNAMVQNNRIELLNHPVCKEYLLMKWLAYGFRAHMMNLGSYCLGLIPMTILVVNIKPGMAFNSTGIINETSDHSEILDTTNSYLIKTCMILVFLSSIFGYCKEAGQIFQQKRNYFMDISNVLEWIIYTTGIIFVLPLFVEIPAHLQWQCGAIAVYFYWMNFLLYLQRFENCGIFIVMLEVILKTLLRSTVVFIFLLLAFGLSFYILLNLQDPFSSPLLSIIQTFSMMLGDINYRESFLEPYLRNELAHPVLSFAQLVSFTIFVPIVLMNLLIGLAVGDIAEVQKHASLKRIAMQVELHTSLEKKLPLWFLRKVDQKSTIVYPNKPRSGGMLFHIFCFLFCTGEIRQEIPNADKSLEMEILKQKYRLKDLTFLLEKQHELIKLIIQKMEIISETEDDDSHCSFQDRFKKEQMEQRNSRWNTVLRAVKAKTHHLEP

Row | Compound | pIC50
1 | O=C(c1cc(-c2ccncc2)n(-c2ccccc2)n1)N1CCC2(CC1)OCCO2 [Compound 31] | < 4.60
2 | O=C(c1cc(-c2ccncc2)n(-c2ccc(C(F)(F)F)cc2)n1)N1CCC(N2C(=O)Cc3ccccc32)CC1 [Compound 54] | < 4.60
3 | CC1COC2(CCN(C(=O)c3cc(-c4ccncc4)n(-c4ccc(C(F)(F)F)cc4)n3)CC2)O1 (stereo not shown) [Compound 71] | < 4.60
4 | CCCC1COC2(CCN(C(=O)c3cc(-c4ccncc4)n(-c4ccc(C(F)(F)F)cc4)n3)CC2)O1 (stereo not shown) [Compound 74] | < 4.60
5 | O=C(c1cc(-c2ccncc2)n(-c2ccc(F)c(F)c2)n1)N1CCC(N2C(=O)Cc3ccccc32)CC1 [Compound 76] | < 4.60

Same assay, conditions: HEK293 cells expressing human TRPA1; IC50 class after addition of reference TRPA1 agonist (FFA, AITC or 4-HNE); read-out: human TRPA1-HEK Activity

Row | Compound | pIC50
6 | O=C(c1cc(-c2ccncc2)n(-c2ccccc2)n1)N1CCC2(CCCC2)CC1 [Compound 4] | < 4.60
7 | O=C(c1cc(-c2ccncc2)n(-c2ccccc2)n1)N1CC2(CCCC2)C1 [Compound 6] | < 4.60
8 | O=C(c1cc(-c2ccncc2)n(-c2ccccc2)n1)N1CCC2(CC1)C(=O)NCN2c1ccccc1 [Compound 8] | 4.60 to 5.30
9 | O=C(c1cc(-c2ccncc2)n(-c2ccccc2)n1)N1CCC2(CCCO2)CC1 [Compound 12] | < 4.60
10 | O=C(c1cc(-c2ccncc2)n(-c2ccccc2)n1)N1CCC2(CCNC2=O)CC1 [Compound 13] | < 4.60
11 | O=C(c1cc(-c2ccncc2)n(-c2ccccc2)n1)N1CCC2(CC1)CC(F)(F)CO2 [Compound 16] | 4.60 to 5.30
12 | O=C(c1cc(-c2ccncc2)n(-c2ccccc2)n1)N1CCC(n2c(=O)[nH]c3ccccc32)CC1 [Compound 25] | < 4.60
13 | N#CC1(c2ccccc2)CCN(C(=O)c2cc(-c3ccncc3)n(-c3ccccc3)n2)CC1 [Compound 28] | < 4.60
14 | O=C1NC(=O)C2(CCN(C(=O)c3cc(-c4ccncc4)n(-c4ccccc4)n3)CC2)N1 [Compound 30] | < 4.60
15 | O=C(c1cc(-c2ccncc2)n(-c2ccccc2)n1)N1CCN(c2ccc(C(F)(F)F)cn2)CC1 [Compound 32] | < 4.60
16 | O=C(c1cc(-c2ccncc2)n(-c2ccccc2)n1)N1CCN(c2cc(C(F)(F)F)cc(C(F)(F)F)c2)CC1 [Compound 33] | < 4.60
17 | O=C(c1cc(-c2ccncc2)n(-c2ccccc2)n1)N1CCN(c2ncccc2C(F)(F)F)CC1 [Compound 34] | < 4.60
18 | O=C(Nc1nc(-c2ccc(C(F)(F)F)cc2)cs1)c1cc(-c2ccncc2)n(-c2ccccc2)n1 [Compound 35] | < 4.60
19 | O=C(Nc1nc(-c2ccc(F)c(C(F)(F)F)c2)cs1)c1cc(-c2ccncc2)n(-c2ccccc2)n1 [Compound 37] | < 4.60
20 | O=C(Nc1ccc2[nH]c(=O)oc(=O)c2c1)c1cc(-c2ccncc2)n(-c2ccccc2)n1 [Compound 38] | 4.60 to 5.30
21 | Cn1c(=O)oc2ccc(NC(=O)c3cc(-c4ccncc4)n(-c4ccccc4)n3)cc21 [Compound 39] | < 4.60
22 | CN1C(=O)c2ccc(NC(=O)c3cc(-c4ccncc4)n(-c4ccccc4)n3)cc2C1=O [Compound 40] | < 4.60
23 | O=C(c1cc(-c2cccnc2)n(-c2ccc(C(F)(F)F)cc2)n1)N1CCC2(CC1)C(=O)NCN2c1ccc(F)cc1 [Compound 49] | 5.30 to 9.00
24 | Cc1cnc(-c2cc(C(=O)N3CCC4(CC3)C(=O)NCN4c3ccc(F)cc3)nn2-c2ccc(C(F)(F)F)cc2)c(C)n1 [Compound 52] | < 4.60
25 | O=C(c1cc(-c2ccncc2)n(-c2ccc(C(F)(F)F)cc2)n1)N1CCC2(CC1)C(=O)NCN2c1ccc(F)cc1 [Compound 55] | 5.30 to 9.00
26 | O=C(c1cc(-c2ccncc2)n(-c2ccc(C(F)(F)F)cc2)n1)N1CCC2(CC1)C(=O)NCN2c1ccc(Cl)cc1 [Compound 56] | < 4.60
27 | O=C(c1cc(-c2ccncc2)n(-c2ccc(C(F)(F)F)cc2)n1)N1CCC2(CC1)OCc1ccccc12 [Compound 57] | < 4.60
28 | O=C1OC2(CCN(C(=O)c3cc(-c4ccncc4)n(-c4ccc(C(F)(F)F)cc4)n3)CC2)c2ccccc21 [Compound 58] | < 4.60
29 | O=C(c1cc(-c2ccncc2)n(-c2ccc(C(F)(F)F)cc2)n1)N1CC(=O)N2CCc3ccccc3C2C1 (stereo not shown) [Compound 60] | 4.60 to 5.30

Row | Compound | pIC50
30 | Cn1c(=O)n(C2CCN(C(=O)c3cc(-c4ccncc4)n(-c4ccc(C(F)(F)F)cc4)n3)CC2)c2ccccc21 [Compound 61] | < 4.60
31 | O=C(c1cc(-c2ccncc2)n(-c2ccc(C(F)(F)F)cc2)n1)N1CCC(N2C(=O)OC[C@H]2c2ccccc2)CC1 [Compound 62] | < 4.60
32 | O=C(c1cc(-c2ccncc2)n(-c2ccc(C(F)(F)F)cc2)n1)N1CCC2(CC1)SCCS2 [Compound 63] | < 4.60
33 | O=C(c1cc(-c2ccncc2)n(-c2ccc(C(F)(F)F)cc2)n1)N1CCC(c2nc3ccccc3o2)CC1 [Compound 65] | < 4.60
34 | O=C(Nc1ccc2c(c1)OC(F)(F)O2)c1cc(-c2ccncc2)n(-c2ccc(C(F)(F)F)cc2)n1 [Compound 66] | < 4.60
35 | CN1C(=O)COc2cc(NC(=O)c3cc(-c4ccncc4)n(-c4ccc(C(F)(F)F)cc4)n3)ccc21 [Compound 67] | < 4.60
36 | O=C1CSC2(CCN(C(=O)c3cc(-c4ccncc4)n(-c4ccc(C(F)(F)F)cc4)n3)CC2)N1 [Compound 68] | < 4.60
37 | Cn1c(=O)c(=O)n(C)c2cc(NC(=O)c3cc(-c4ccncc4)n(-c4ccc(C(F)(F)F)cc4)n3)ccc21 [Compound 69] | < 4.60
38 | O=C(Nc1ccc2c(c1)COC2=O)c1cc(-c2ccncc2)n(-c2ccc(C(F)(F)F)cc2)n1 [Compound 70] | 4.60 to 5.30
39 | O=C(c1cc(-c2ccncc2)n(-c2ccc(C(F)(F)F)cc2)n1)N1CCN2C(=O)OC[C@@H]2C1 [Compound 72] | 4.60 to 5.30
40 | O=C(c1cc(-c2ccncc2)n(-c2ccc(C(F)(F)F)cc2)n1)N1CCC2(CC1)NCN(c1ccccc1)C2=O [Compound 73] | < 4.60
41 | CN1C(=O)NC2(CCN(C(=O)c3cc(-c4ccncc4)n(-c4ccc(C(F)(F)F)cc4)n3)CC2)C1=O [Compound 75] | < 4.60
42 | O=C(c1cc(-c2ccncc2)n(-c2ccc(F)c(F)c2)n1)N1CCC2(CC1)C(=O)NCN2c1ccc(Cl)cc1 [Compound 78] | < 4.60
43 | O=C(c1cc(-c2ccncc2)n(-c2ccc(F)c(F)c2)n1)N1CCC2(CC1)OCc1ccccc12 [Compound 79] | < 4.60
44 | O=C1OC2(CCN(C(=O)c3cc(-c4ccncc4)n(-c4ccc(F)c(F)c4)n3)CC2)c2ccccc21 [Compound 80] | < 4.60
45 | O=C(c1cc(-c2ccncc2)n(-c2ccc(F)c(F)c2)n1)N1CC(=O)N2CCc3ccccc3C2C1 (stereo not shown) [Compound 82] | < 4.60
46 | Cn1c(=O)n(C2CCN(C(=O)c3cc(-c4ccncc4)n(-c4ccc(F)c(F)c4)n3)CC2)c2ccccc21 [Compound 83] | < 4.60
47 | O=C(c1cc(-c2ccncc2)n(-c2ccc(F)c(F)c2)n1)N1CCC(N2C(=O)OC[C@H]2c2ccccc2)CC1 [Compound 84] | < 4.60
48 | O=C(c1cc(-c2ccncc2)n(-c2ccc(F)c(F)c2)n1)N1CCC2(CC1)SCCS2 [Compound 85] | < 4.60
49 | O=C(c1cc(-c2ccncc2)n(-c2ccc(F)c(F)c2)n1)N1CCC(c2nc3ccccc3o2)CC1 [Compound 87] | < 4.60
50 | O=C(Nc1ccc2c(c1)OC(F)(F)O2)c1cc(-c2ccncc2)n(-c2ccc(F)c(F)c2)n1 [Compound 88] | 4.60 to 5.30
51 | CN1C(=O)COc2cc(NC(=O)c3cc(-c4ccncc4)n(-c4ccc(F)c(F)c4)n3)ccc21 [Compound 89] | < 4.60
52 | O=C1CSC2(CCN(C(=O)c3cc(-c4ccncc4)n(-c4ccc(F)c(F)c4)n3)CC2)N1 [Compound 90] | < 4.60
